Laboratory results: patent US10828317B2, “Method of treating bacterial infections” (priority 2016, dated 2020)

What was measured:
[1] = tested on: S. aureus EN008; experiment: MIC, Gram-positive control; format: cell-based, Staphylococcus aureus; conditions: combination FdUrd+trimethoprim+uridine, Table 8
[2] = tested on: E. coli EN0139; experiment: MIC, ESBL (CTX-M-15); format: cell-based; conditions: combination FdUrd+trimethoprim+uridine, Table 19
[3] = tested on: S. aureus strain no 13; experiment: MIC vs S. aureus LMG 15975, MRSA; conditions: Uridine 0 μg/ml
[4] = tested on: K. pneumoniae EN0436; experiment: MIC, colistinR; format: cell-based; conditions: combination FdUrd+trimethoprim+uridine, Table 19
[5] = tested on: E. coli EN0138; experiment: MIC, ESBL (CTX-M-9); format: cell-based; conditions: combination FdUrd+trimethoprim+uridine, Table 19
[6] = tested on: E. coli EN003; experiment: microbe, parasite or virus in culture; format: cell-based, Escherichia coli; conditions: combination FdUrd+trimethoprim+uridine, Table 8
[7] = tested on: S. aureus V86; experiment: MIC; format: cell-based; conditions: Uridine 0 μg/ml
[8] = tested on: K. pneumoniae EN0437; experiment: MIC, colistinR; format: cell-based; conditions: combination FdUrd+trimethoprim+uridine, Table 19
[9] = tested on: S. aureus no. 11; experiment: MIC; format: cell-based
[10] = tested on: E. coli EN013; format: cell-based, Escherichia coli; conditions: combination FdUrd+trimethoprim+uridine, Table 8
[11] = tested on: S. flexneri APV00906; experiment: microbe, parasite or virus in culture; format: cell-based; conditions: combination FdUrd+trimethoprim+uridine, Table 22A
Description: (§1) Inhibition of Heliobacter is important in view of increasing resistance and its association to gastric cancer.

[12] = tested on: P. aeruginosa EN015; format: cell-based, Pseudomonas aeruginosa; conditions: combination FdUrd+trimethoprim+uridine, Table 8
[13] = tested on: K. pneumoniae EN0140; experiment: MIC, AmpC (DHA-1); format: cell-based; conditions: combination FdUrd+trimethoprim+uridine, Table 19
[14] = tested on: S. aureus V308; experiment: MIC; format: cell-based
[15] = tested on: K. pneumoniae EN0262; experiment: MIC, ESBL (+), KPC+; format: cell-based; conditions: combination FdUrd+trimethoprim+uridine, Table 19 and 21
[16] = tested on: K. pneumoniae EN011; format: cell-based, Klebsiella pneumoniae; conditions: combination FdUrd+trimethoprim+uridine, Table 8
[17] = tested on: P. aeruginosa EN005; conditions: combination FdUrd+trimethoprim+uridine, Table 8
[18] = tested on: K. pneumoniae EN0233; experiment: MIC; format: cell-based; conditions: combination FdUrd+trimethoprim+uridine, Table 19
[19] = tested on: K. pneumoniae EN0143; experiment: MIC, ESBL (SHV-12); format: cell-based; conditions: combination FdUrd+trimethoprim+uridine, Table 19
[20] = tested on: E. coli strain no 2; experiment: MIC vs E. coli LMG 15862, penicillin resistant; conditions: Table 26B
[21] = tested on: A. baumannii EN017; format: cell-based, Acinetobacter baumannii; conditions: combination FdUrd+trimethoprim+uridine, Table 8
[22] = tested on: E. coli EN0135; experiment: MIC, ESBL (SHV-2a); format: cell-based; conditions: combination FdUrd+trimethoprim+uridine, Table 19
[23] = tested on: S. aureus no. 12; experiment: MIC vs S. aureus LMG 10147, MSSA; format: cell-based, Staphylococcus aureus; conditions: Uridine 0 μg/ml
[24] = tested on: Helicobacter pylori APV00918; experiment: MIC; format: cell-based; conditions: combination FdUrd+trimethoprim+uridine, Table 22A
Description: as §1

[25] = tested on: Helicobacter pylori ATTC43504; experiment: MIC; format: cell-based; conditions: combination FdUrd+trimethoprim+uridine, Table 22A
Description: as §1

[26] = tested on: K. pneumoniae EN010; experiment: MIC, WT; format: cell-based, Klebsiella pneumoniae; conditions: combination FdUrd+trimethoprim+uridine, Table 8
[27] = tested on: K. pneumoniae EN0401; experiment: MIC, Carbapenemase + ESBL; format: cell-based; conditions: combination FdUrd+trimethoprim+uridine, Table 19
[28] = Iclaprim 0.008 μg/ml, Uridine 0 μg/ml
[29] = Iclaprim 0.008 μg/ml, Uridine 100 μg/ml
[30] = Iclaprim 0.03 μg/ml, Uridine 0 μg/ml
[31] = Iclaprim […], Uridine 100 μg/ml

O=c1[nH]c(=O)n([C@H]2C[C@H](O)[C@@H](CO)O2)cc1F [FdUrd, Fluorodeoxyuridine]
MIC [1]: <0.008 µg/mL
MIC [2]: 0.5 µg/mL
MIC FdUrd ([3]; Table 26A (isolate not given), Iclaprim 0.015): >0.5 µg/mL
MIC FdUrd ([3]; Table 26A (isolate not given), Iclaprim 0.03): >0.5 µg/mL
MIC FdUrd ([3]; Table 26A (isolate not given), Iclaprim 0.08): >0.5 µg/mL
MIC FdUrd ([3]; Table 30C, Iclaprim 0.008 μg/ml): >4 µg/mL
MIC FdUrd ([3]; Table 30C, Iclaprim 0.03 μg/ml): >4 µg/mL
MIC FdUrd ([3]; Table 30C, Iclaprim […]): >4 µg/mL
MIC [4]: 0.25 µg/mL
MIC [5]: 0.25 µg/mL
MIC [6]: 0.016 µg/mL
MIC FdUrd ([7]; Iclaprim 0.008 μg/ml): >4 µg/mL
MIC FdUrd ([7]; Iclaprim 0.03 μg/ml): >4 µg/mL
MIC FdUrd ([7]; Iclaprim 0.06 μg/ml): >4 µg/mL
MIC FdUrd ([7]; Iclaprim […]): >4 µg/mL
MIC [8]: >4 µg/mL
MIC FdUrd [9, 28]: >4 µg/mL
MIC FdUrd [9, 29]: >4 µg/mL
MIC FdUrd [9, 30]: >4 µg/mL
MIC FdUrd ([9]; Iclaprim 0.03 μg/ml, Uridine 100 μg/ml): >4 µg/mL
MIC FdUrd ([9]; Iclaprim […], Uridine 0 μg/ml): >4 µg/mL
MIC FdUrd [9, 31]: >4 µg/mL
MIC [10]: 0.016 µg/mL
MIC [11]: >4 µg/mL
MIC [12]: 1 µg/mL
MIC [13]: >4 µg/mL
MIC FdUrd ([14]; Iclaprim 0 μg/ml, Uridine 0 μg/ml): >16 µg/mL
MIC FdUrd ([14]; Iclaprim 0 μg/ml, Uridine 100 μg/ml): >16 µg/mL
MIC FdUrd [14, 28]: >4 µg/mL
MIC FdUrd [14, 29]: >4 µg/mL
MIC FdUrd [14, 30]: >4 µg/mL
MIC FdUrd ([14]; Iclaprim 0.06 μg/ml, Uridine 0 μg/ml): >4 µg/mL
MIC FdUrd ([14]; Iclaprim […], Uridine 0 μg/ml): >4 µg/mL
MIC FdUrd [14, 31]: >4 µg/mL
MIC [15]: 2 µg/mL
MIC [16]: 0.064 µg/mL
MIC [17]: 0.25 µg/mL
MIC [18]: 0.5 µg/mL
MIC [19]: >4 µg/mL
MIC FdUrd ([20]; Iclaprim 0, Uridine 0 μg/ml): >16 µg/mL
MIC FdUrd ([20]; Iclaprim 0, Uridine 100 μg/ml): >16 µg/mL
MIC FdUrd ([20]; Iclaprim 0, Uridine 300 μg/ml): >16 µg/mL
MIC FdUrd ([20]; Iclaprim 0, Uridine 500 μg/ml): >16 µg/mL
MIC FdUrd ([20]; Iclaprim 0.1, Uridine 0 μg/ml): >8 µg/mL
MIC FdUrd ([20]; Iclaprim 0.1, Uridine 100 μg/ml): >8 µg/mL
MIC FdUrd ([20]; Iclaprim 0.2, Uridine 0 μg/ml): >8 µg/mL
MIC [21]: 0.5 µg/mL
MIC [22]: 0.25 µg/mL
MIC FdUrd ([23]; Iclaprim 0.008 μg/ml): >4 µg/mL
MIC FdUrd ([23]; Iclaprim 0.03 μg/ml): >4 µg/mL
MIC FdUrd ([23]; Iclaprim […]): >4 µg/mL
MIC [24]: 0.06 µg/mL
MIC [25]: 0.06 µg/mL
MIC [26]: 0.5 µg/mL
MIC [27]: >4 µg/mL
